Experimental data reported in patent US9725449B2, “Tricyclic compounds as anticancer agents” (BRISTOL-MYERS SQUIBB COMPANY, priority 2015, dated 2017).

Target: BRD4 (Homo sapiens, UniProt O60885)
Experiment: Time resolved fluorescence resonance energy transfer (TR-FRET) binding assay, bromodomain BRD4
Conditions: one of the FRET assays described; read-out: FRET BRD4 IC50

Structure (SMILES)	IC50
[2H]C([2H])([2H])Oc1ncc(S(C)(=O)=O)c2c1c1ncc(-c3c(C)noc3C([2H])([2H])[2H])cc1n2[C@H](c1ccccc1)C1CCOCC1 [Example 54, 10-Methanesulfonyl-13-(^2H3)methoxy-5-[5-(^2H3)methyl-3-methyl-1,2-oxazol-4-yl]-8-[(S)-oxan-4-yl(phenyl)methyl]-3,8,12-triazatricyclo[7.4.0.0^2,^7]trideca-1(13),2(7),3,5,9,11-hexaene]	< 10 nM
[2H]C([2H])([2H])Oc1ncc(S(C)(=O)=O)c2c1c1ncc(-c3c(C)noc3C([2H])([2H])[2H])cc1n2[C@H](c1ccc(F)cc1)C1CCOCC1 [Example 55, 8-[(S)-(4-Fluorophenyl)(oxan-4-yl)methyl]-10-methanesulfonyl-13-(^2H3)methoxy-5-[5-(^2H3)methyl-3-methyl-1,2-oxazol-4-yl]-3,8,12-triazatricyclo[7.4.0.0^2,^7]trideca-1(13),2(7),3,5,9,11-hexaene]	< 1 nM
[2H]C([2H])([2H])c1nnn(C)c1-c1cnc2c3c(OCC)ncc(S(C)(=O)=O)c3n([C@H](c3ccccc3)C3CCOCC3)c2c1 [Example 56, 13-Ethoxy-10-methanesulfonyl-5-[4-(^2H3)methyl-1-methyl-1H-1,2,3-triazol-5-yl]-8-[(S)-oxan-4-yl(phenyl)methyl]-3,8,12-triazatricyclo[7.4.0.0^2,^7]trideca-1(13),2(7),3,5,9,11-hexaene]	< 1 nM
Cc1nnn(C)c1-c1cnc2c3c(OC(C)C)ncc(S(C)(=O)=O)c3n([C@H](c3ccccc3)C3CCOCC3)c2c1 [Example 57, 5-(Dimethyl-1H-1,2,3-triazol-5-yl)-10-methanesulfonyl-8-[(S)-oxan-4-yl(phenyl)methyl]-13-(propan-2-yloxy)-3,8,12-triazatricyclo[7.4.0.0^2,^7]trideca-1(13),2(7),3,5,9,11-hexaene]	< 1 nM
[2H]C([2H])([2H])c1nnn(C)c1-c1cnc2c3c(OC(C)C)ncc(S(C)(=O)=O)c3n([C@H](c3ccccc3)C3CCOCC3)c2c1 [Example 58, 10-Methanesulfonyl-5-[4-(^2H3)methyl-1-methyl-1H-1,2,3-triazol-5-yl]-8-[(S)-oxan-4-yl(phenyl)methyl]-13-(propan-2-yloxy)-3,8,12-triazatricyclo[7.4.0.0^2,^7]trideca-1(13),2(7),3,5,9,11-hexaene]	< 1 nM
[2H]C([2H])([2H])c1nnn(C)c1-c1cnc2c3c(OCC4CC4)ncc(S(C)(=O)=O)c3n([C@H](c3ccccc3)C3CCOCC3)c2c1 [Example 59, 13-(Cyclopropylmethoxy)-10-methanesulfonyl-5-[4-(^2H3)methyl-1-methyl-1H-1,2,3-triazol-5-yl]-8-[(S)-oxan-4-yl(phenyl)methyl]-3,8,12-triazatricyclo[7.4.0.0^2,^7]trideca-1(13),2(7),3,5,9,11-hexaene]	< 1 nM
[2H]C([2H])([2H])c1onc(C)c1-c1cnc2c3c(OC)ncc(S(C)(=O)=O)c3n([C@H](c3ccccc3)C3CCOCC3)c2c1 [Example 60, 10-Methanesulfonyl-13-methoxy-5-[5-(^2H3)methyl-3-methyl-1,2-oxazol-4-yl]-8-[(S)-oxan-4-yl(phenyl)methyl]-3,8,12-triazatricyclo[7.4.0.0^2,^7]trideca-1(13),2(7),3,5,9,11-hexaene]	< 1 nM
[2H]C([2H])([2H])c1nnn(C)c1-c1cnc2c3c(OCC)ncc(S(C)(=O)=O)c3n([C@H](c3ccccc3F)C3CCOCC3)c2c1 [Example 62, 13-Ethoxy-8-[(S)-(2-fluorophenyl)(oxan-4-yl)methyl]-10-methanesulfonyl-5-[4-(^2H3)methyl-1-methyl-1H-1,2,3-triazol-5-yl]-3,8,12-triazatricyclo[7.4.0.0^2,^7]trideca-1(13),2(7),3,5,9,11-hexaene]	< 1 nM
[2H]C([2H])([2H])c1nnn(C)c1-c1cnc2c3c(OCCO)ncc(S(C)(=O)=O)c3n([C@H](c3ccccc3F)C3CCOCC3)c2c1 [Example 63, 2-({8-[(S)-(2-Fluorophenyl)(oxan-4-yl)methyl]-10-methanesulfonyl-5-[4-(^2H3)methyl-1-methyl-1H-1,2,3-triazol-5-yl]-3,8,12-triazatricyclo[7.4.0.0^2,^7]trideca-1(13),2(7),3,5,9,11-hexaen-13-yl}oxy)ethan-1-ol]	< 1 nM
[2H]C([2H])([2H])c1nnn(C)c1-c1cnc2c3c(OC)ncc(S(C)(=O)=O)c3n(C(c3ncccc3F)C3CCOCC3)c2c1 (stereo not drawn) [Example 64, 8-[(3-Fluoropyridin-2-yl)(oxan-4-yl)methyl]-10-methanesulfonyl-13-methoxy-5-[4-(^2H3)methyl-1-methyl-1H-1,2,3-triazol-5-yl]-3,8,12-triazatricyclo[7.4.0.0^2,^7]trideca-1(13),2(7),3,5,9,11-hexaene]	< 1 nM
[2H]C([2H])([2H])c1nnn(C)c1-c1cnc2c3c(OC)ncc(S(C)(=O)=O)c3n(C(c3ncccc3F)C3CCOCC3)c2c1 (stereo not drawn) [Example 65, 8-[(3-Fluoropyridin-2-yl)(oxan-4-yl)methyl]-10-methanesulfonyl-13-methoxy-5-[4-(^2H3)methyl-1-methyl-1H-1,2,3-triazol-5-yl]-3,8,12-triazatricyclo[7.4.0.0^2,^7]trideca-1(13),2(7),3,5,9,11-hexaene]	< 1500 nM
[2H]C([2H])([2H])c1onc(C)c1-c1cnc2c3c(OC)ncc(S(=O)(=O)C([2H])([2H])[2H])c3n(C(c3ncccc3F)C3CCOCC3)c2c1 (stereo not drawn) [Example 66, 8-[(3-Fluoropyridin-2-yl)(oxan-4-yl)methyl]-10-(^2H3)methanesulfonyl-13-methoxy-5-[5-(^2H3)methyl-3-methyl-1,2-oxazol-4-yl]-3,8,12-triazatricyclo[7.4.0.0^2,^7]trideca-1(13),2(7),3,5,9,11-hexaene]	< 10 nM
[2H]C([2H])([2H])c1onc(C)c1-c1cnc2c3c(OC)ncc(S(=O)(=O)C([2H])([2H])[2H])c3n(C(c3ncccc3F)C3CCOCC3)c2c1 (stereo not drawn) [Example 67, 8-[(3-Fluoropyridin-2-yl)(oxan-4-yl)methyl]-10-(^2H3)methanesulfonyl-13-methoxy-5-[5-(^2H3)methyl-3-methyl-1,2-oxazol-4-yl]-3,8,12-triazatricyclo[7.4.0.0^2,^7]trideca-1(13),2(7),3,5,9,11-hexaene]	< 1500 nM
[2H]C([2H])([2H])c1nnn(C)c1-c1cnc2c3c(OCC)ncc(S(C)(=O)=O)c3n(C(c3ncccc3F)C3CCOCC3)c2c1 (stereo not drawn) [Example 68, 13-Ethoxy-8-[(3-fluoropyridin-2-yl)(oxan-4-yl)methyl]-10-methanesulfonyl-5-[4-(^2H3)methyl-1-methyl-1H-1,2,3-triazol-5-yl]-3,8,12-triazatricyclo[7.4.0.0^2,^7]trideca-1(13),2(7),3,5,9,11-hexaene]	< 1 nM
[2H]C([2H])([2H])c1nnn(C)c1-c1cnc2c3c(OCC)ncc(S(C)(=O)=O)c3n(C(c3ncccc3F)C3CCOCC3)c2c1 (stereo not drawn) [Example 69, 13-Ethoxy-8-[(3-fluoropyridin-2-yl)(oxan-4-yl)methyl]-10-methanesulfonyl-5-[4-(^2H3)methyl-1-methyl-1H-1,2,3-triazol-5-yl]-3,8,12-triazatricyclo[7.4.0.0^2,^7]trideca-1(13),2(7),3,5,9,11-hexaene]	< 1500 nM
[2H]C([2H])([2H])c1nnn(C)c1-c1cnc2c3c(OC(C)C)ncc(S(C)(=O)=O)c3n(C(c3ncccc3F)C3CCOCC3)c2c1 (stereo not drawn) [Example 70, 8-[(3-Fluoropyridin-2-yl)(oxan-4-yl)methyl]-10-methanesulfonyl-5-[4-(^2H3)methyl-1-methyl-1H-1,2,3-triazol-5-yl]-13-(propan-2-yloxy)-3,8,12-triazatricyclo[7.4.0.0^2,^7]trideca-1(13),2(7),3,5,9,11-hexaene]	< 1 nM
[2H]C([2H])([2H])c1nnn(C)c1-c1cnc2c3c(OC(C)C)ncc(S(C)(=O)=O)c3n(C(c3ncccc3F)C3CCOCC3)c2c1 (stereo not drawn) [Example 71, 8-[(3-Fluoropyridin-2-yl)(oxan-4-yl)methyl]-10-methanesulfonyl-5-[4-(^2H3)methyl-1-methyl-1H-1,2,3-triazol-5-yl]-13-(propan-2-yloxy)-3,8,12-triazatricyclo[7.4.0.0^2,^7]trideca-1(13),2(7),3,5,9,11-hexaene]	< 1500 nM
[2H]C([2H])([2H])c1nnn(C)c1-c1cnc2c3c(OC)ncc(S(C)(=O)=O)c3n(C(c3ncccc3F)C3CCC(F)(F)CC3)c2c1 (stereo not drawn) [Example 72, 8-[(4,4-Difluorocyclohexyl)(3-fluoropyridin-2-yl)methyl]-10-methanesulfonyl-13-methoxy-5-[4-(^2H3)methyl-1-methyl-1H-1,2,3-triazol-5-yl]-3,8,12-triazatricyclo[7.4.0.0^2,^7]trideca-1(13),2(7),3,5,9,11-hexaene]	< 10 nM
[2H]C([2H])([2H])c1nnn(C)c1-c1cnc2c3c(OC)ncc(S(C)(=O)=O)c3n(C(c3ncccc3F)C3CCC(F)(F)CC3)c2c1 (stereo not drawn) [Example 73, 8-[(4,4-Difluorocyclohexyl)(3-fluoropyridin-2-yl)methyl]-10-methanesulfonyl-13-methoxy-5-[4-(^2H3)methyl-1-methyl-1H-1,2,3-triazol-5-yl]-3,8,12-triazatricyclo[7.4.0.0^2,^7]trideca-1(13),2(7),3,5,9,11-hexaene]	< 1500 nM
[2H]C([2H])([2H])c1nnn(C)c1-c1cnc2c3c(OCC)ncc(S(C)(=O)=O)c3n(C(c3ncccc3F)C3CCC(F)(F)CC3)c2c1 (stereo not drawn) [Example 74, 8-[(4,4-Difluorocyclohexyl)(3-fluoropyridin-2-yl)methyl]-13-ethoxy-10-methanesulfonyl-5-[4-(^2H3)methyl-1-methyl-1H-1,2,3-triazol-5-yl]-3,8,12-triazatricyclo[7.4.0.0^2,^7]trideca-1(13),2(7),3,5,9,11-hexaene]	< 10 nM
[2H]C([2H])([2H])c1nnn(C)c1-c1cnc2c3c(OCC)ncc(S(C)(=O)=O)c3n(C(c3ncccc3F)C3CCC(F)(F)CC3)c2c1 (stereo not drawn) [Example 75, 8-[(4,4-Difluorocyclohexyl)(3-fluoropyridin-2-yl)methyl]-13-ethoxy-10-methanesulfonyl-5-[4-(^2H3)methyl-1-methyl-1H-1,2,3-triazol-5-yl]-3,8,12-triazatricyclo[7.4.0.0^2,^7]trideca-1(13),2(7),3,5,9,11-hexaene]	< 1500 nM
